Test results: US12492195B2, “Preparation method for and crystal form of 3-aryloxy-3-five-membered heteroaryl-propylamine compound” (Zhangzhou Pien Tze Huang Pharmaceutical Co., Ltd., priority 2020, dated 2025)

Tests used:
C57BL/6 mice = assay: formalin pain model in mice; format: in vivo; details: for paw licking time: Phase II, 10-60 min; for analgesic effect (EDso) in phase II pain: intraperitoneal
Experimental: Before the start of experiment, the mice were allowed to adapt to the experimental environment for 72 h with free feeding and drinking water. The test drug was administrated by intraperitoneal injection at a dose of 20 mg/kg, and then the mice were placed in a transparent, ventilated plexiglass cylinder for 1 h, and then 20 μl of 4% formalin solution was injected into the left hind plantar of mice of each group by microinjector. The paw pain response of mice was real-time recorded by miniature camera. The frequency of lifting (1 score/time), shaking (2 score/time), and licking (3 score/time) the left paw and the time length of licking left paw were used as indicators of pain response, the cumulative scoring and licking time in two stages of 0-10 min (phase I, acute pain phase) and 10-60 min (phase II, inflammatory pain phase) were observed and recorded, and the statistical analysis was conducted.
100 male C57BL/6 mice (9-week aged) were randomly divided into 10 groups to evaluate analgesic activity of two compounds in the formalin pain model in mice, and each group had 10 mice. […] Before the start of experiment, the mice were allowed to adapt experimental environment for 72 h with free feeding and drinking water.
After administration, the mice were placed in a transparent, ventilated plexiglass cylinder, and 1 h later, 20 μl of 4% formalin solution was injected into the left hind plantar of mice in each group by micro-injector, and paw pain response in mice was recorded in real time by a mini-camera. The time length of licking left paw was used as an indicator of pain response, licking time in 0-10 min (phase I) and 10-60 min (phase II) was observed and recorded, and the statistical analysis was conducted. The half effective dose (EDso) of three compounds was calculated: EDso referred to the dose of the drug that decreased licking time by half as compared with the blank control group. The less the ED50 value was, the lower the effective analgesic dose of the compound was and the stronger the analgesic effect was.

SH-SY5Y = assay: Cytotoxicity test (CCK-8), neurotoxicity; format: cell-based; details: Homo sapiens, 72 h
Experimental: (§1) HepG-2 and SH-SY5Y cells were prepared and placed in a 10 cm dish and cultured in a cell incubator in 5% CO2 at 37° C. Trypsin was used to digest and cells were re-suspended and counted. The cells were transferred to 96-well plate with 8000 cells in a well (100 μl/well). The plate was cultured in a cell incubator for 24 h in 5% CO2 at 37° C. A serial of gradient concentration dilutions of compound with 2-fold dilution were prepared, and the system was 100 μL/well. The supernatant of cell culture system on the first day in the 96-well plate was removed, and fresh-prepared drug concentration system was added into culture plate wells containing cultured cells (duplicate wells were set). The cells were cultured in a cell incubator in 5% CO2 at 37° C. for 72 h. After the cell culture was completed, the supernatant of cell culture system was removed from 96-well plate, 100 μl of detection solution containing 10% CCK-8 medium was added into each well, and the cells were cultured in a cell incubator in 5% CO2 at 37° C. for 1 h and then taken out after time was up. Microplate reader was used to measure the absorbance at 450 nm. Data was processed to calculate cytotoxicity, and IC50 was calculated by GraphPad Prism. The cytotoxicity calculation formula was as follows: Cytotoxicity (%)=[A(0 Dosing)−A(Dosing)]/[A(0 Dosing)-A (Control)]×100 • A (Dosing): the absorbance of wells containing cells, CCK-8 solution and drug solution. • A (Control): the absorbance of wells containing medium and CCK-8 solution and without cells. • A (0 Dosing): the absorbance of wells containing cells and CCK-8 solution and without drug solution. Experimental Result

HepG2 cell = assay: Cytotoxicity test (CCK-8), hepatotoxicity; format: cell-based; details: Homo sapiens, HepG2, 72 h
Experimental: as §1

human TRPA1 channel = molecular target: T1, human TRPA1 channel (Homo sapiens, UniProt O75762); assay: manual patch clamp detection of TRPA1 inhibitory activity; format: cell-based
T1 construct: expressed in transfected cells
Experimental: The stably transfected HEK293 cell line stably expressing human TRPA1 channel was placed in T75 culture flask with DMEM medium containing 15 μg/mL Blasticidin S HCl, 200 μg/mL Hygromycin B and 10% FBS, and cultured in an incubator in 5% CO2 at 37° C. When the cell density reached about 80%, the culture medium was removed, the residue was rinsed once with phosphate buffered saline (PBS) without calcium and magnesium. 2 mL of Trypsin was added to digest for 2 minutes, and 8 mL of culture medium was added to terminate the digestion. The cells were collected to 15 mL centrifuge tube and centrifuged at 800 rpm for 3 min. After the supernatant was removed, the cells were added to appropriate volume of extracellular fluid for re-suspending.
In manual patch clamp detection, HEKA system (Patch Master software) was used together with EPC-10 amplifier to record the whole cell current of TRPA1 stably transfected cell line at room temperature. […]
The record of data and the export of current amplitude measurement were carried out by Patch Master software. […] The original current data were corrected by software for leakage reduction, and the hTRPA1 current amplitude was measured at ±100 mV. The compound dose-effect curve and IC50 were fitted and calculated by GraphPad Prism 5.02 (GraphPad Sofhvare, San Diego, CA).

T1 sequence (O75762 whole entry): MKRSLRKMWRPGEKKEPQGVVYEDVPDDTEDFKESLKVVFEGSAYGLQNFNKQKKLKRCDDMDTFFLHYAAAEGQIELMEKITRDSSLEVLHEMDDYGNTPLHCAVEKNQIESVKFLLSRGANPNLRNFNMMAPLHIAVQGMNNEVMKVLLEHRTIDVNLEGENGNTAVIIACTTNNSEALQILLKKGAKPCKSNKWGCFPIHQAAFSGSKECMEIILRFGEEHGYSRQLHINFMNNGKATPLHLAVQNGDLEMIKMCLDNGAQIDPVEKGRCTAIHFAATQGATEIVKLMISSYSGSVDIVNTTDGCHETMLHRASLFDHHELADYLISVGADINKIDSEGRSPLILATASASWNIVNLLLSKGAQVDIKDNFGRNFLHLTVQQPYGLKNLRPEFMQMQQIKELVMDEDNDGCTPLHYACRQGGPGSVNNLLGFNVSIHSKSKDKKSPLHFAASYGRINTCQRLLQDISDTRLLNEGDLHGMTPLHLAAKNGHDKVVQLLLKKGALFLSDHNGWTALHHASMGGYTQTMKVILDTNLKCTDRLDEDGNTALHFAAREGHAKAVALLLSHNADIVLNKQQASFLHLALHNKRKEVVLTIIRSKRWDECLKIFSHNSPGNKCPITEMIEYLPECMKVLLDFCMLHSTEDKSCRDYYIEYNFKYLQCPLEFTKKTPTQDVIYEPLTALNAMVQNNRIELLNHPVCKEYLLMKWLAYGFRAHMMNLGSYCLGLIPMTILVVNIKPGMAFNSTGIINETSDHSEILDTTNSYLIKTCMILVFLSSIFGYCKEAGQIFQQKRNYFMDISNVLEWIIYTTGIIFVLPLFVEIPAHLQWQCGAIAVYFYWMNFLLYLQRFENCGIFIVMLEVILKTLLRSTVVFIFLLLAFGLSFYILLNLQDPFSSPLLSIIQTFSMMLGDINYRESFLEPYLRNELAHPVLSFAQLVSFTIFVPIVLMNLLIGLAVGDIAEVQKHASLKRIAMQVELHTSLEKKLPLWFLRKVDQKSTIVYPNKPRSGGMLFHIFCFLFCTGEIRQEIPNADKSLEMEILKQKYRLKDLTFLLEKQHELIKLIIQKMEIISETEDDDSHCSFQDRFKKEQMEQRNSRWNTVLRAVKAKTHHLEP

With `CNCC[C@H](Oc1cccc2ccccc12)c1cccs1` [Duloxetine (S configuration), Duloxetine, reference compound] the “paw licking time” value (C57BL/6 mice; 1 mg/kg intraperitoneal) was 259.97 ± 64.44 s, the “paw licking time” value (C57BL/6 mice; 5 mg/kg intraperitoneal) was 230.49 ± 41.31 s and the “paw licking time” value (C57BL/6 mice; 10 mg/kg intraperitoneal) was 162.83 ± 36.27 s. The “paw licking time” value (C57BL/6 mice; 20 mg/kg intraperitoneal) was 72.27 ± 17.29 s, the “analgesic effect (EDso) in phase II pain” value (C57BL/6 mice; phase II (10-60 min)) was 8.00 mg/kg and the IC50 (SH-SY5Y) was 28 µM. It also gave an IC50 (HepG2 cell) of 33 µM.
`CNCC[C@H](Oc1cccc2ccoc12)c1cccs1` [IC-1, (S)-3-(Benzofuran-7-yloxy)-N-methyl-3-(thiophen-2-yl)propan-1-amine] was tested, and the “ratio of IC50 of the S configuration of duloxetine to the IC50 of the compound” value (human TRPA1 channel) was 10.14, the “paw licking time” value (C57BL/6 mice; 0.1 mg/kg intraperitoneal) was 339.35 ± 27.90 s and the “paw licking time” value (C57BL/6 mice; 0.5 mg/kg intraperitoneal) was 368.16 ± 44.46 s. The “paw licking time” value (C57BL/6 mice; 1 mg/kg intraperitoneal) was 171.57 ± 39.69 s, the “decrease of paw licking time as compared with blank vehicle” value (C57BL/6 mice; 1 mg/kg, phase II (10-60 min)) was “more than 50%” and the “paw licking time” value (C57BL/6 mice; 5 mg/kg intraperitoneal) was 158.02 ± 25.18 s. The “paw licking time” value (C57BL/6 mice; 10 mg/kg intraperitoneal) was 35.68 ± 11.77 s, the “analgesic effect (EDso) in phase II pain” value (C57BL/6 mice; phase II (10-60 min)) was 2.22 mg/kg and the IC50 (SH-SY5Y) was 60 to 120 µM. For the same compound, the IC50 (HepG2 cell) was 60 to 120 µM.
In the case of `CNCC[C@H](Oc1cccc2c1CCC2)c1cccs1` [IC-10], the “ratio of IC50 of the S configuration of duloxetine to the IC50 of the compound” value (human TRPA1 channel) is reported as 3.9, the “analgesic activity, licking time” value (C57BL/6 mice; 20 mg/kg intraperitoneal, phase I (0-10 min) and phase II (10-60 min), compared with saline group) is reported as “almost completely inhibited licking paw behavior caused by pain” and the IC50 (SH-SY5Y) is reported as 60 to 120 µM. It also gave an IC50 (HepG2 cell) of 60 to 120 µM.
